In brackets after ≈: the same amount, converted by molar mass.

For one compound, EC50 results are on record in ChEMBL document CHEMBL1150753, “Antitumor agents, 93. Bruceanol C, a new cytotoxic quassinoid from Brucea antidysenterica” (1988).

What all share (assay type): functional
What all share (settings): read-out: ED50 (the source's name)

One test concerns HCT-8. Put plainly: Cytotoxicity against human HCT8 cells.
The test system of a further test is KB. Put plainly: Cytotoxicity against human KB cells.
The test system of a further test is P388. As to the kind of experiment: Cytotoxicity against mouse P388 cells.
A further test relates to A549. Put plainly: Cytotoxicity against human A549 cells.

For the compound `COC(=O)[C@]12OC[C@]34[C@H]([C@@H](O)[C@@H]1O)[C@@]1(C)[C@H](O)C(=O)C=C(C)[C@@H]1C[C@H]3OC(=O)[C@H](OC(=O)/C=C(\C)C(C)(C)OC(C)=O)[C@@H]24` [Bruceanol C], the EC50 in the test on HCT-8 was < 0.4 µg/mL; with KB, < 0.04 µg/mL; with P388, 0.56 µg/mL (≈ 0.923 µM); in the test with A549, 0.48 µg/mL (≈ 0.791 µM).
